Assay in all cases: Bliss excess, mean over the matrix (fraction); higher = more synergy
The subject of experiment [1] is MLMA (Other Blood Carcinomas). In a few lines: (§1)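 Cell lines in DMEM/F12 or RPMI with 10% FBS were plated in 1536-well plates, held 24 hours at 37°C, 5% CO2, then given two-drug dose matrices for 72 hours (DMSO typically 0.2%). Viability was read by CellTiter-Glo 2.0 luminescence and scaled as inhibition from 0 (vehicle wells) to 1 (blank wells). Combination Emax is the second-highest inhibition in the matrix; Bliss excess is observed combination effect minus expected EA + EB − EA·EB, EA and EB being single-agent effects.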

Experiment [2] relates to EFM-19 (Breast Carcinoma). Summed up:
as §1

Experiment [3] relates to EoL-1-cell (Acute Myeloid Leukemia). In a few lines: as §1
Experiment [4] relates to KARPAS-299 (T-Cell Non-Hodgkin's Lymphoma). In a few lines: as §1
A further experiment has as its system TGW (Neuroblastoma). In a few lines:
as §1

In experiment [5] the test system is KYSE-450 (Esophageal Squamous Cell Carcinoma). In a few lines:
as §1

For experiment [6], the system named is NCI-H727 (Other Solid Carcinomas). Summed up:
as §1

For experiment [7], the system named is LU-65 (Non-Small Cell Lung Carcinoma). In a few lines: as §1
The next experiment deals with EW-24 (Ewing's Sarcoma). Summed up: as §1
Experiment [8] deals with Hs-766T (Pancreatic Carcinoma). In a few lines:
as §1

In experiment [9] the test system is MIA-PaCa-2 (Pancreatic Carcinoma). Summed up:
as §1

The next experiment relates to YH-13 (Glioblastoma). In a few lines: as §1
Experiment [10] relates to BT-549 (Breast Carcinoma). In a few lines:
as §1

Experiment [11] deals with Caov-4 (Ovarian Carcinoma). Summed up:
as §1

`C[C@@H](Nc1cc(F)cc(F)c1)c1cc(C(=O)N(C)C)cc2c(=O)cc(N3CCOCC3)oc12` [AZD8186] + CC(=O)c1c(C)c2cnc(Nc3ccc(N4CCNCC4)cn3)nc2n(C2CCCC2)c1=O [Palbociclib] (first compound max 10 µM, 7x7, partner max 10 µM): the Bliss excess is 0.0443 in [1]; -0.0026 in experiment [2]; 0.0996 in experiment [3]; 0.0912 in experiment [4]; -0.0397 in the experiment with TGW (Neuroblastoma); -0.0404 in [5]. In addition, the Bliss excess is 0.0923 in experiment [6]; -0.0378 in experiment [7]; 0.0598 in the experiment with EW-24 (Ewing's Sarcoma); 0.006 in experiment [8]; 0.0485 in experiment [9]; 0.0183 in the experiment with YH-13 (Glioblastoma). Moreover, the values for the Bliss excess in [10] and in [11] were 0.0464 and 0.0078, respectively.
On to `C[C@@H](Oc1cc(-c2cnn(C3CCNCC3)c2)cnc1N)c1c(Cl)ccc(F)c1Cl` [Crizotinib] + CC1=C(C(=CC=C1)Cl)NC(=O)C2=CN=C(S2)NC3=CC(=NC(=N3)C)N4CCN(CC4)CCO [Dasatinib] (first compound max 10 µM, 7x7, partner max 2 µM), for which the Bliss excess in experiment [1] is -0.0411; in [2], 0.0874; in experiment [3], 0.0101; in experiment [4], -0.0263; in the experiment with TGW (Neuroblastoma) it was -0.0593; in [5], 0.0276. Further, the Bliss excess in [6] was -0.0009; in [7], -0.0973; with EW-24 (Ewing's Sarcoma), -0.0154; in [8] it was -0.074; in [9], 0.0119; in the experiment with YH-13 (Glioblastoma), 0.107. Besides, the Bliss excess in [10] was 0.0139; in experiment [11], -0.0441.
On to `C[C@@H](Oc1cc(-c2cnn(C3CCNCC3)c2)cnc1N)c1c(Cl)ccc(F)c1Cl` [Crizotinib] + Cn1cnc2c(F)c(Nc3ccc(Br)cc3Cl)c(C(=O)NOCCO)cc21 [Selumetinib] (first compound max 10 µM, 7x7, partner max 10 µM), for which the Bliss excess was -0.116 in experiment [1]; -0.0327 in [2]; 0.0352 in experiment [3]; -0.032 in [4]; -0.0252 with TGW (Neuroblastoma); -0.0241 in experiment [5]. In addition, the Bliss excess in experiment [6] was -0.0226; in experiment [7], 0.0003; in the experiment on EW-24 (Ewing's Sarcoma), -0.0464; in experiment [8], -0.0074; in experiment [9] it was 0.0058; in the experiment with YH-13 (Glioblastoma), -0.0111. The Bliss excess in experiment [10] was -0.063; in experiment [11], -0.025.
On to `CS(=O)(=O)CCNCc1ccc(-c2ccc3ncnc(Nc4ccc(OCc5cccc(F)c5)c(Cl)c4)c3c2)o1` [Lapatinib] + Cn1cnc2c(F)c(Nc3ccc(Br)cc3Cl)c(C(=O)NOCCO)cc21 [Selumetinib] (first compound max 10 µM, 7x7, partner max 10 µM), for which the Bliss excess was 0.0059 in experiment [1]; -0.0395 in [2]; -0.038 in [3]; 0.0736 in [4]; -0.079 with TGW (Neuroblastoma); -0.016 in experiment [5]. Besides, the Bliss excess in experiment [6] was 0.0299; in experiment [7], -0.0113; in the experiment with EW-24 (Ewing's Sarcoma), -0.0473; in experiment [8] it was -0.0652; in experiment [9], 0.0484; with YH-13 (Glioblastoma), -0.0095. Moreover, the Bliss excess in experiment [10] is -0.0473; in experiment [11] it was 0.0493.
In the case of `O=C(c1cc(Cc2n[nH]c(=O)c3ccccc23)ccc1F)N1CCN(C(=O)C2CC2)CC1` [Olaparib] + CC1(C)CCC(CN2CCN(c3ccc(C(=O)NS(=O)(=O)c4ccc(NCC5CCOCC5)c([N+](=O)[O-])c4)c(Oc4cnc5[nH]ccc5c4)c3)CC2)=C(c2ccc(Cl)cc2)C1 [Venetoclax] (first compound max 10 µM, 7x7, partner max 1 µM), the Bliss excess in experiment [1] is -0.0299; in [2] it was 0.0138; in [3] it was 0.0698; in [4], 0.0277; in the experiment on TGW (Neuroblastoma), -0.0225; in experiment [5] it was -0.0499. Moreover, the Bliss excess is -0.0383 in experiment [6]; -0.0323 in experiment [7]; -0.0087 in the experiment with EW-24 (Ewing's Sarcoma); -0.0885 in experiment [8]; -0.0208 in experiment [9]; -0.0207 in the experiment with YH-13 (Glioblastoma). Besides, the Bliss excess in experiment [10] was -0.0516; in experiment [11], -0.032.
For `O=C(c1cc(Cc2n[nH]c(=O)c3ccccc23)ccc1F)N1CCN(C(=O)C2CC2)CC1` [Olaparib] + CN(CC[C@H](CSC1=CC=CC=C1)NC2=C(C=C(C=C2)S(=O)(=O)NC(=O)C3=CC=C(C=C3)N4CCC(CC4)[C@H](C5=CC=CC=C5C6=CC=C(C=C6)Cl)O)S(=O)(=O)C(F)(F)F)CCO [AZD4320] (first compound max 10 µM, 7x7, partner max 1 µM), the Bliss excess is -0.0619 in [1]; -0.015 in experiment [2]; 0.0717 in experiment [3]; 0.109 in [4]; -0.0479 in the experiment with TGW (Neuroblastoma); -0.0434 in experiment [5]. Besides, the Bliss excess was -0.052 in experiment [6]; -0.0739 in experiment [7]; 0.0097 in the experiment with EW-24 (Ewing's Sarcoma); -0.0976 in experiment [8]; 0.002 in experiment [9]; 0.0012 with YH-13 (Glioblastoma). In addition, the Bliss excess in experiment [10] is -0.0365; in experiment [11], -0.0392.
`O=C(c1cc(Cc2n[nH]c(=O)c3ccccc23)ccc1F)N1CCN(C(=O)C2CC2)CC1` [Olaparib] + COc1nnc2ccc(N3CCC(c4ccc(OCCN5CCN(C)C(=O)[C@H]5C)cc4)CC3)nn12 [AZD5153] (first compound max 10 µM, 7x7, partner max 1 µM): the Bliss excess in experiment [1] is -0.0697; in experiment [2], 0.0112; in experiment [3], -0.0384; in [4] it was -0.0654; with TGW (Neuroblastoma), -0.054; in experiment [5] it was -0.0606. Also, the Bliss excess in experiment [6] is -0.0452; in experiment [7], -0.0601; in the experiment on EW-24 (Ewing's Sarcoma), -0.0469; in [8], -0.0857; in [9] it was -0.0233; in the experiment on YH-13 (Glioblastoma) it was -0.0114. The Bliss excess in experiment [10] is -0.0697; in experiment [11], -0.0634.
In the case of `O=C(c1cc(Cc2n[nH]c(=O)c3ccccc23)ccc1F)N1CCN(C(=O)C2CC2)CC1` [Olaparib] + Cc1c2c(nn1C)CSCc1cc(n(C)n1)CSc1cc(c3ccccc3c1)OCCCc1c(C(=O)O)n(C)c3c-2c(Cl)ccc13 [AZD5991] (first compound max 10 µM, 7x7, partner max 1 µM), the Bliss excess is -0.0744 in [1]; 0.0102 in experiment [2]; 0.0236 in experiment [3]; 0.0202 in experiment [4]; -0.032 with TGW (Neuroblastoma); -0.0409 in experiment [5]. Also, the Bliss excess in experiment [6] was -0.0269; in experiment [7] it was -0.0452; in the experiment with EW-24 (Ewing's Sarcoma), -0.0215; in experiment [8], -0.0818; in [9], -0.0205; with YH-13 (Glioblastoma), -0.0298. The Bliss excess in [10] was -0.0223; in [11] it was -0.0215.

Values taken from the supplement of paper PMC11061612.
